From patent US20100152284A1, “PREVENTION AND REVERSAL OF CHEMOTHERAPY-INDUCED PERIPHERAL NEUROPATHY” (NOVOGEN RESEARCH PTY LTD, priority 2006, published 2010)
Several values for one entry are separate records, joined by “and”; a condition that tells them apart may be missing. Identical values can stand only once.

Assays:
[1] = system: differentiated PC12 cells; test: βIII-tubulin immunocytochemistry of treated differentiated PC12 cells; type: cell-based; conditions: 24 hrs
From the text: Further, immunocytochemistry was used to visualise the neurite toxicity effects described above. To do so, following the treatment period, cells were washed with PBS, fixed with 4% paraformaldehyde and permeabilised with ice-cold methanol. Neurons were immunostained for the neuronal marker βIII-tubulin (Promega; Madison, Wisconson, USA) and a Cy3-conjugated anti-mouse antibody (Invitrogen) was used to visualise the staining.

[2] = system: differentiated PC12 cells; test: Recovery from cisplatin-induced neurite toxicity (24 h drug, 24 h wash-out, 24 h phenoxodiol); type: cell-based; conditions: after 48 hrs of recovery
Procedure: To determine whether phenoxodiol could have an effect on recovery from cisplatin- or paclitaxel-induced neurite toxicity by exacerbation, reversal, retardation or facilitation of repair, recovery experiments were performed. When conducting the recovery experiments, the concentrations of phenoxodiol tested were decreased by 1 log to 10 nM 100 nM and 1 μM.

[3] = system: differentiated PC12 cells; test: Neurite length (longest neurite per neuron) in differentiated PC12 cells; type: cell-based
Procedure: Further to the above described analysis of cells containing neurites, the longest neurite per neuron present in each frame was measured using Image J open source software (NIH, USA).

[4] = patients receiving therapy; cited from earlier work
[5] = system: differentiated PC12 cells; test: Neurite toxicity: percentage of differentiated PC12 cells with neurites after 24 h incubation; conditions: for reduction in the percentage of cells with neurites: strong dose; for inhibition of neurite outgrowth, dose responsiveness: increasing concentrations, 24 hrs, FIG. 1; for reduction in cells with neurites compared to no treatment control: Example 2, p<0.001
Procedure: PC-12 cells were maintained in Dulbecco's Modified Eagle Media (DMEM; Gibco) with 10% calf serum (Turbo calf serum, Invitrogen), 5% horse serum (JRH Biosciences, Victoria, Australia) and 1% penicillin/streptomycin (Invitrogen) at 37° C., in a 5% CO2 atmosphere. Differentiation into neurons was achieved by seeding cells at a density of 15,000 cells/well in 24-well plates (Falcon Becton Dickinson), on 13 mm glass cover slips (Menzel Glaser, Germany) coated with laminin (Invitrogen) and poly-DL-ornithine (Sigma) in DMEM plus 1% horse serum and 50 ng/mL of nerve growth factor (NGF) (Sigma). The cells were incubated for 72 hours under differentiation conditions, before use in the neurite outgrowth assays below.
Working concentrations were diluted in PC12 cell differentiation medium as above. Treatments consisted of a 24 hour incubation in differentiation media with various concentrations of either agent.
Outgrowing projections were considered neurites if they were greater than a cell body width (10 μm), essentially as previously described. Images of all neurons in thirty randomly selected fields were digitally captured using an Olympus BX60 fluorescence microscope with a UPIanFI 40×/0.75 objective lens and a Zeiss Axiocam HRc digital camera and Zeiss Axiovision 3.1 software. Neurons in all fields were counted per condition and the number of cells with neurites expressed as a percentage of total cells present and error expressed as the standard error of the mean (sem). Each experiment was conducted in triplicate and the results pooled. Statistical significance of data was analysed using ANOVA followed by the Bonferroni post-hoc test.
Neurite toxicity was determined as the percent of cells comprising neurite outgrowths as described in Example 1.

[6] = system: PC12 cells
Procedure: A serial dilution was also conducted for phenoxodiol to determine the concentration which would not affect normal growth of the differentiated cells. […] Working concentrations were diluted in PC12 cell differentiation medium as above.

Compound: N.N.[Cl][Pt][Cl] [cisplatin, Cis-diamine-dichloro-platinum]
- percentage of cells bearing neurites compared to control (βIII-tubulin staining) ([1]; cisplatin 20 μg/ml): decreased the percentage of cells bearing neurites
- neurite toxicity compared to the no treatment control ([2]; cisplatin 1 μg/ml): no neurite toxicity
- neurite toxicity compared to the no treatment control ([2]; cisplatin 20 μg/ml, p<0.001): greater than 50%
- average neurite length of the remaining neurites ([3]; cisplatin alone): no significant effect on the average neurite length
- patients experiencing mild neuropathy [4]: around 40%
- patients experiencing severe neuropathy [4]: approximately 4%
- reduction in percentage of cells with neurites ([5]; cisplatin 1 μg/mL (3.33 μM), moderate dose, 24 h, Example 1): 31.9%
- reduction in the percentage of cells with neurites ([5]; cisplatin 20 μg/mL (66.65 μM), 24 h, Example 1): 65.8%
- neurite toxicity (percent neurites) ([5]; cisplatin alone 1 μg/ml, Example 2, ANOVA, t-test P<0.02): non-significant (n.s.) trend for moderate toxicity
- decrease in percent neurites compared to control ([5]; cisplatin alone 20 μg/ml, Example 2, P<0.001): 42%
- inhibition of neurite outgrowth, dose responsiveness [5]: dose response in inhibition of neurite outgrowth

Compound: CC(=O)O[C@H]1C(=O)[C@@]2(C)[C@H]([C@H](OC(=O)c3ccccc3)[C@]3(O)C[C@H](OC(=O)[C@H](O)[C@@H](NC(=O)c4ccccc4)c4ccccc4)C(C)=C1C3(C)C)[C@]1(OC(C)=O)CO[C@@H]1C[C@@H]2O [paclitaxel]
- cytotoxicity at the chosen concentrations [6]: did not produce cytotoxicity
- neurite length compared to the no treatment control ([3]; paclitaxel alone, both concentrations used, p<0.001): reduced neurite length
- inhibition of neurite outgrowth, dose responsiveness [5]: dose response in inhibition of neurite outgrowth
- decrease in the percentage of cells possessing neurites ([5]; paclitaxel 0.156 μg/mL (0.18 μM), moderate dose, 24 h, Example 1): 33%
- reduction in the percentage of cells with neurites ([5]; paclitaxel 2.5 μg/mL (2.93 μM), 24 h, Example 1): 73.6%
- reduction in cells with neurites compared to no treatment control ([5]; paclitaxel moderate dose (0.156 μg/ml)): 58%
- reduction in cells with neurites compared to no treatment control ([5]; paclitaxel strong dose (2.4 μg/ml/2.93 μM)): 72%

Compound: Oc1ccc(C2=Cc3ccc(O)cc3OC2)cc1 [phenoxodiol, 2H-1-benzopyran-7-0,1,3-[4-hydroxyphenyl]]
- cell and neurite toxicity in βIII-tubulin stained cells ([1]; phenoxodiol 10 μm): Significant cell and neurite toxicity
- cytotoxicity ([6]; 10 μM, data not shown): considerable cytotoxicity
- effect on cell death or neurite outgrowth ([6]; doses up to 1 μM, data not shown): no effect on cell death or neurite outgrowth
- maximal concentration tested that did not affect survival of PC12 cells ([6]; serial dilution): 1 μM and 3.2 μg/ml
- average neurite length compared to no treatment control ([3]; phenoxodiol 10 μM alone, p<0.001): significant reductions in average neurite length
- average neurite length compared to no treatment control ([3]; phenoxodiol 10 μM in combination with Cisplatin and Paclitaxel, p<0.001): significant reductions in average neurite length
- sensitivity of neurite toxicity to the protective effect relative to cytotoxic and anti-proliferative effects in cancer cell lines ([5]; PC12 neuronal cell model vs a variety of cancer cell lines): approximately 10 fold
- neurite toxicity in combination, compared to phenoxodiol 10 μM alone ([5]; phenoxodiol 10 μM + cisplatin 1 μg/ml (P<0.01) or 20 μg/ml (P<0.001)): increased toxicity
- neurite toxicity in combination, compared to phenoxodiol 10 μM alone ([5]; phenoxodiol 10 μM + paclitaxel, both concentrations (P<0.001)): increased toxicity
- effect on percent neurites ([5]; phenoxodiol alone 10 μM, 24 h, P<0.001 vs no treatment control): significant neurite toxicity
